Results published in patent US10168342B2, “Lipid probes and uses thereof” (THE SCRIPPS RESEARCH INSTITUTE, priority 2015, dated 2019).

Legend:
Assay in all cases: In situ competitive SILAC profiling with A-DA probe in (PMA-stimulated) A549 cells
Settings in all cases: A549 cells, A-DA probe
[1] = biological target: T1, A-DA lipid probe targets in A549 cells (Homo sapiens, UniProt O75911)
T1 sequence (O75911 1-302): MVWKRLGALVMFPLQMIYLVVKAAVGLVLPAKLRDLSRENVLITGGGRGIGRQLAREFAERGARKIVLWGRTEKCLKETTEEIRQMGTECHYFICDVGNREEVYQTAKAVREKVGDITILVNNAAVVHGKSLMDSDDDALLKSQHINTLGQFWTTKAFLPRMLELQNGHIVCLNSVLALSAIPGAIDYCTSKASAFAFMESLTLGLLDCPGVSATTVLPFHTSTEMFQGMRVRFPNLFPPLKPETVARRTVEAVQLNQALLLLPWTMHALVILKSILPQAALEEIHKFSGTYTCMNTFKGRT

[2] = biological target: T2, A-DA lipid probe targets in A549 cells (Homo sapiens, UniProt P07602)
T2 sequence (P07602 60-524): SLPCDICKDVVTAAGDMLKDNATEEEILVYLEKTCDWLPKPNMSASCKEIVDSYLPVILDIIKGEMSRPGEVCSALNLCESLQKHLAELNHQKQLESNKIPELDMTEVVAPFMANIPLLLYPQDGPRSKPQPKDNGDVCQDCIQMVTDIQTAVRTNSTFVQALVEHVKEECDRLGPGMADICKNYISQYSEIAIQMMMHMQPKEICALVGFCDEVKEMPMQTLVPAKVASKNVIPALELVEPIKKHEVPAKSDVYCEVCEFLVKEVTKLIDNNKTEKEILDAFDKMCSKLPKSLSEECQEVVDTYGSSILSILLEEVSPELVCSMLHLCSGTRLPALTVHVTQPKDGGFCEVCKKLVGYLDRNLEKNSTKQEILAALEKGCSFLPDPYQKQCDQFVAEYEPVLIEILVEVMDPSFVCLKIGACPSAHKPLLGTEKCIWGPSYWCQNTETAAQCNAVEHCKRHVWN

[3] = biological target: T3, A-DA lipid probe targets in A549 cells (Homo sapiens, UniProt P30519)
T3 sequence (P30519 1-316): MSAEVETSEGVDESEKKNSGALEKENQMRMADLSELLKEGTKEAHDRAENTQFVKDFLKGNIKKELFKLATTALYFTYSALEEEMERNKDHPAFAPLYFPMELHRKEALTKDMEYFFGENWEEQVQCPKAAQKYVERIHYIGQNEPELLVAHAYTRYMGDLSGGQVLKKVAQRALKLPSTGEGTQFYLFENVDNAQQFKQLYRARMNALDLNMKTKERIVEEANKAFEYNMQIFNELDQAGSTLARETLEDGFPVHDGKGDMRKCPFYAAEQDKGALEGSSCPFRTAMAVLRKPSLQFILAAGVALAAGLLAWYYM

[4] = biological target: A-DA lipid probe targets in A549 cells (Homo sapiens, UniProt Q14534)
[5] = biological target: T4, A-DA lipid probe targets in A549 cells (Homo sapiens, UniProt Q86XL3)
T4 sequence (Q86XL3 1-938): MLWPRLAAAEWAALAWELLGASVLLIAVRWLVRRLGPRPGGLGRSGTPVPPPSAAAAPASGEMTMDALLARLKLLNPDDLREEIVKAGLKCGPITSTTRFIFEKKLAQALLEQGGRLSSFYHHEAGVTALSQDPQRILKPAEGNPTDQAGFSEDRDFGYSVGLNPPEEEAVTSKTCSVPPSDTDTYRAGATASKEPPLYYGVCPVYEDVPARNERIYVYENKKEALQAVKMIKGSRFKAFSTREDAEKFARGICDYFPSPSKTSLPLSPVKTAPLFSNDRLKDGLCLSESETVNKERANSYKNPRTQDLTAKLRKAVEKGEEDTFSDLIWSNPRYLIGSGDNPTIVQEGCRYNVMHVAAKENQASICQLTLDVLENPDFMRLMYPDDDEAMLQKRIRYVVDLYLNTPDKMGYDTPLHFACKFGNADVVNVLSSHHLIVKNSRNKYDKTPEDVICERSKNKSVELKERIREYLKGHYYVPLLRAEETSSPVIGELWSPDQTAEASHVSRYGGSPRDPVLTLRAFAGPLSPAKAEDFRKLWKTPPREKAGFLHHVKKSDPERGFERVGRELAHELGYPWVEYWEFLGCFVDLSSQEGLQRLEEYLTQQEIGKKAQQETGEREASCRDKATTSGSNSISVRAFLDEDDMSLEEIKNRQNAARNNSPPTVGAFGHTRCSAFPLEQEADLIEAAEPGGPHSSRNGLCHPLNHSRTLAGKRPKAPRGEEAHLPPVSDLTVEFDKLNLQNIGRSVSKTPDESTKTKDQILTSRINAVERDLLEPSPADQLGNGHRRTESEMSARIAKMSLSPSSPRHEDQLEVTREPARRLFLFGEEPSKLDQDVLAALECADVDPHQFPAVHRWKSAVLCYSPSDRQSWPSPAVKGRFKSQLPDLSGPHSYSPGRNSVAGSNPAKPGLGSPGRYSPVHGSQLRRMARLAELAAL

[6] = biological target: T5, A-DA lipid probe targets in A549 cells (Homo sapiens, UniProt Q8N5I4)
T5 sequence (Q8N5I4 1-330): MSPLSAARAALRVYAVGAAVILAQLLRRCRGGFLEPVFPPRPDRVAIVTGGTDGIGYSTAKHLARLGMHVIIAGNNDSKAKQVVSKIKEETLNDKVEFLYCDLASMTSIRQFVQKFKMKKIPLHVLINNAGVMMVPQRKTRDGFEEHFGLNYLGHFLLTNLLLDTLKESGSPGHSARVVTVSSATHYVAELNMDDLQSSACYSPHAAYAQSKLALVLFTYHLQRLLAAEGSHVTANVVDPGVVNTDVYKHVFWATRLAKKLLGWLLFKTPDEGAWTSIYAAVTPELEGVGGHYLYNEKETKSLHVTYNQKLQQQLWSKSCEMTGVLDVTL

Chain of A-DA lipid probe targets in A549 cells (Homo sapiens, UniProt Q14534) (Q14534 whole entry): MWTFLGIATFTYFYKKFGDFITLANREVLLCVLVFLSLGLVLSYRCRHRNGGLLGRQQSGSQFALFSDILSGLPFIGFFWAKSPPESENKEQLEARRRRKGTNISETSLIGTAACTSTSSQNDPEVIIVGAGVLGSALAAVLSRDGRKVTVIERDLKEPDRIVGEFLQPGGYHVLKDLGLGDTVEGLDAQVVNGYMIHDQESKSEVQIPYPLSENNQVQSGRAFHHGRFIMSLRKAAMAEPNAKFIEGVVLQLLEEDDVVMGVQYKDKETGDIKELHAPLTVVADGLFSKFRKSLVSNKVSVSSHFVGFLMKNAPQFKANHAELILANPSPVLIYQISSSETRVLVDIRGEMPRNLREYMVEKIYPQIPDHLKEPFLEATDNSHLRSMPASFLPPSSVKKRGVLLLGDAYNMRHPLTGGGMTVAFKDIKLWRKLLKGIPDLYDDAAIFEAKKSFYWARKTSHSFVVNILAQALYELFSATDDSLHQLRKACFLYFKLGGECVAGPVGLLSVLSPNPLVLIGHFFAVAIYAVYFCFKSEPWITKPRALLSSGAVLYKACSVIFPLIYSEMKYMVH

O=C(/C=C/c1cccnc1)NCCCCC1CCN(C(=O)c2ccccc2)CC1 [FK-866, reference compound]
SILAC ratio, DHRS3 (O75911) ([1]; competitor 25 μM): 2.0 | SILAC ratio, PSAP (P07602) ([2]; competitor 25 μM): 1.2 | SILAC ratio, HMOX2 (P30519) ([3]; competitor 25 μM): 1.3 | SILAC ratio, SQLE (Q14534) ([4]; competitor 25 μM): 1.6 | SILAC ratio, ANKLE2 (Q86XL3) ([5]; competitor 25 μM): 1.3 | SILAC ratio, DHRSX (Q8N5I4) ([6]; competitor 25 μM): 1.4

C=CCN(C)CCCCCCOc1ccc(C(=O)c2ccc(Br)cc2)c(F)c1 [Ro488071]
SILAC ratio, DHRS3 (O75911) ([1]; competitor 5 μM): 1.8 | SILAC ratio, DHRS3 (O75911) ([1]; competitor 50 μM): 3.1 | SILAC ratio, PSAP (P07602) ([2]; competitor 5 μM): 2.3 | SILAC ratio, PSAP (P07602) ([2]; competitor 50 μM): 3.1 | SILAC ratio, HMOX2 (P30519) ([3]; competitor 5 μM): 1.3 | SILAC ratio, HMOX2 (P30519) ([3]; competitor 50 μM): 3.4 | SILAC ratio, SQLE (Q14534) ([4]; competitor 5 μM): 1.4 | SILAC ratio, SQLE (Q14534) ([4]; competitor 50 μM): 3.3 | SILAC ratio, ANKLE2 (Q86XL3) ([5]; competitor 5 μM): 1.7 | SILAC ratio, ANKLE2 (Q86XL3) ([5]; competitor 50 μM): 3.1 | SILAC ratio, DHRSX (Q8N5I4) ([6]; competitor 5 μM): 1.6 | SILAC ratio, DHRSX (Q8N5I4) ([6]; competitor 50 μM): 2.7
